Reference: US20250090699A1, “FAP TARGETING CYCLIC PEPTIDES AND CONJUGATES THEREOF” (Novartis AG, priority 2023, published 2025)
Structures can show the parent of a compound that is named as a salt. Starred links: 1 amine or outer side, 2 acyl side, 3 side chain; linkers in the order of their positions; H or OH if unused. Non-standard residues stand in square brackets, D forms with d. Residues, ends and D or L forms follow the SMILES beside them. Groups on a side chain read outwards from the residue. *: point of attachment. F4(amMeBAlaDOTALu) = lutetium complex of (S)-2,2',2''-(10-(2-((3-((4-(2-amino-2-carboxyethyl)benzyl)amino)-3-oxopropyl)(methyl)amino)-2-oxoethyl)-1,4,7,10-tetraazacyclododecane-1,4,7-triyl)triacetic acid (Phe with 4-aminomethyl-N-methyl-βAla, CN(CCC(=O)NCc1ccc(C[C@H](N[*:1])C(=O)[*:2])cc1)C(=O)CN1CCN(CC(=O)[O-])CCN(CC(=O)[O-])CCN(CC(=O)[O-])CC1.[Lu+3]; F(4OEtnHNODAGA-Lu) = lutetium complex of 2,2'-(7-(4-((2-(4-((S)-2-amino-2-carboxyethyl)phenoxy)ethyl)amino)-1-carboxy-4-oxobutyl)-1,4,7-triazonane-1,4-diyl)diacetic acid (Phe with 4-O-ethylamino-NODAGA-Lu); X9 = O=C(O)CN1CCN(CC(=O)O)CCN([C@H](CCC(=O)*)C(=O)O)CCN(CC(=O)O)CC1; F(4OEtNHRDOTAGA-Lu) = Phe with 4-O-ethyl-NH-DOTAGA, Lu complex; Trp(6-OH) = N[C@@H](Cc1c[nH]c2cc(O)ccc12)C(=O)O; Piperazinyl(4-CH2COOH) = O=C(O)CN1CCN(*)CC1; X7 = CCCCC[C@@H](O)[C@H](N[*:1])C(=O)[*:2]; AEF = NCCOc1ccc(C[C@H](N)C(=O)O)cc1; NMeF = CN[C@@H](Cc1ccccc1)C(=O)O; Ahp(2) = CCCCC[C@H](N)C(=O)O; Dab = NCC[C@H](N)C(=O)O; CO = O=C([*:1])[*:2]

How the values were obtained:
mouse FAP [1] = target: T1, mouse FAP (Mus musculus, UniProt P97321); test: Enzymatic FAP competition assay (Z-Gly-Pro-AMC fluorescence), mouse FAP; assay type: biochemical; settings: read-out: m. FAP, Enz., IC50
T1 construct: biotinylated His, Avi tag, mouse FAP (26-761, FAP-M82Q5); His; Avi tag (biotinylated); purchased AcroBiosystems FAP-M82Q5
T1 sequence (P97321 26-761): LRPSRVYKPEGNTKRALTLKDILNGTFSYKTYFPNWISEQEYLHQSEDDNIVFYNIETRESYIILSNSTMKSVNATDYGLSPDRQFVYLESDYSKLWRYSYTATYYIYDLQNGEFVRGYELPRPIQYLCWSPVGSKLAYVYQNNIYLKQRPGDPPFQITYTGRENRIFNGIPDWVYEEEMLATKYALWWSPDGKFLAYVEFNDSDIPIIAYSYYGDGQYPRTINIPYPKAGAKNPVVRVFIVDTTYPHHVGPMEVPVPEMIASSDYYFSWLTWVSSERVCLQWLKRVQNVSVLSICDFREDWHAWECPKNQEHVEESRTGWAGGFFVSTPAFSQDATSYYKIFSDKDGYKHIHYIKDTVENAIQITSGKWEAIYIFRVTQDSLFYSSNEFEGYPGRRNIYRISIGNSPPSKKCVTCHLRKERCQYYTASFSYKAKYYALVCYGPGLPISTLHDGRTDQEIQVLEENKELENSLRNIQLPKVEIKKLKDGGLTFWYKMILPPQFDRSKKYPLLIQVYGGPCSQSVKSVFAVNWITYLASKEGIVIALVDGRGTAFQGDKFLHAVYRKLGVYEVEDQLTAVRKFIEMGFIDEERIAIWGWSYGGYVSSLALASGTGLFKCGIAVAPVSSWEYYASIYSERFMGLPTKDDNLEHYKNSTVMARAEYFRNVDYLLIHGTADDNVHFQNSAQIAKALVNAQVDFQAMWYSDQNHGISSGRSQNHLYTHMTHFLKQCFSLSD
In short: (§1)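 Biotinylated His/Avi-tagged FAP ectodomain (human 26-760, mouse 26-761) at 0.01 nM, preincubated 24 h with peptides (14 concentrations, up to 1 μM) in pH 7.5 phosphate, 150 mM NaCl, 0.05% Tween20, 1% DMSO. Then 50 μM Z-Gly-Pro-AMC, 4 h at 22-24° C; AMC fluorescence (380/460 nm) gave IC50 from duplicate points.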

human FAP = target: T2, human FAP (Homo sapiens, UniProt Q12884); test: Enzymatic FAP competition assay (Z-Gly-Pro-AMC fluorescence), human FAP; assay type: biochemical; settings: read-out: h. FAP, Enz., IC50
T2 construct: the biotinylated His, Avi tag, human FAP (26-760, FAP-H82Q6); His; Avi tag (biotinylated); purchased AcroBiosystems FAP-H82Q6
T2 sequence (Q12884 26-760): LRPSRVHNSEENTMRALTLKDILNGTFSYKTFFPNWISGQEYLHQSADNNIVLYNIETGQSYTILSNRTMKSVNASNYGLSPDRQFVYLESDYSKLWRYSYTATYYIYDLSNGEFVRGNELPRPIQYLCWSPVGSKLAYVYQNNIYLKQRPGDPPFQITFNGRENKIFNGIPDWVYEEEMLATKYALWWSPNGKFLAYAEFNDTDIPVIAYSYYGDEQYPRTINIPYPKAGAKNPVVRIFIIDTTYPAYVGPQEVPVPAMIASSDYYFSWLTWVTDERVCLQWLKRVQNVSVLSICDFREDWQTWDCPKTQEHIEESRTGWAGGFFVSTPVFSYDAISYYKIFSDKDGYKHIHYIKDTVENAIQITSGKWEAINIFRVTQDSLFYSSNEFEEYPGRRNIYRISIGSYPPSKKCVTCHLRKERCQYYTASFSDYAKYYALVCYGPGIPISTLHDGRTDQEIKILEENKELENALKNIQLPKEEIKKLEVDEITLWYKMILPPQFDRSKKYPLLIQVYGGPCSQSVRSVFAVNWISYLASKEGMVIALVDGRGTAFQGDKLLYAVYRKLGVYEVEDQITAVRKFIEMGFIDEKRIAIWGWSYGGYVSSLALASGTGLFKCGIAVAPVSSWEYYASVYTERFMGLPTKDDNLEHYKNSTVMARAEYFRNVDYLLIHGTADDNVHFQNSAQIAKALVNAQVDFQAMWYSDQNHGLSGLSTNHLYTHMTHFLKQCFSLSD
In short: as §1

mouse FAP [2] = target: T1, mouse FAP; test: Surface plasmon resonance (SPR) for peptide affinity, mouse FAP; assay type: binding
In short: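 Biotinylated His/Avi-tagged FAP ectodomains (human 26-760, mouse 26-761) captured or immobilized on Biacore sensor chips; peptides run at 25 °C in HBS-EP+ pH 7.6 with 2% DMSO, single-cycle kinetics, 8 concentrations. KD from 1:1 binding-model fit of sensorgrams.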

Compound	IC50 (mouse FAP [1]) [nM]	IC50 (human FAP) [nM]	Kd (mouse FAP [2]) [nM]
CCCCC[C@@H]1NC(=O)[C@H](Cc2ccc(O)cc2)NC(=O)[C@H](Cc2ccccc2)N(C)C(=O)CNC(=O)[C@H](CCCCN)NC(=O)[C@H]2CCCN2C(=O)[C@H](CC(=O)O)NC(=O)[C@H](Cc2ccc(O)cc2)NC(=O)CNC(=O)[C@H](Cc2c[nH]c3ccccc23)NC1=O [Example A53, Lys-Gly-NMePhe-Tyr-Ahp-Trp-Gly-Tyr-Asp-D-Pro, TFA salt] (cyclo([Ahp(2)]WGYD[dP]KG[NMeF]Y))	1.3	0.4	0.72
CCCCC[C@@H]1NC(=O)[C@H](Cc2ccc(O)cc2)NC(=O)[C@H](Cc2ccccc2)N(C)C(=O)CNC(=O)CNC(=O)[C@H]2CCCN2C(=O)[C@H](CC(=O)O)NC(=O)[C@H](CCNC(=O)N2CCN(CC(=O)O)CC2)NC(=O)CNC(=O)[C@H](Cc2c[nH]c3ccccc23)NC1=O [Example A5, Gly-Gly-NMePhe-Tyr-Ahp-Trp-Gly-Dab(COPipzaa)-Asp-D-Pro] (cyclo([Ahp(2)]WG[Dab]([CO-Piperazinyl(4-CH2COOH)])D[dP]GG[NMeF]Y))	0.5	0.07	0.62
CCCCC[C@@H](O)[C@@H]1NC(=O)[C@H](Cc2ccc(O)cc2)NC(=O)[C@H](Cc2ccccc2)N(C)C(=O)CNC(=O)CNC(=O)[C@H]2CCCN2C(=O)[C@H](CC(=O)O)NC(=O)[C@H](Cc2ccc(O)cc2)NC(=O)CNC(=O)[C@H](Cc2c[nH]c3ccccc23)NC1=O [Example A34, Gly-Gly-NMePhe-Tyr-Aoc(3R-OH)-Trp-Gly-Tyr-Asp-D-Pro] (cyclo(D[dP]GG[NMeF]Y[X7]WGY))	0.4	0.055	0.25
CCCCC[C@@H]1NC(=O)[C@H](Cc2ccc(O)cc2)NC(=O)[C@H](Cc2ccccc2)N(C)C(=O)CNC(=O)CNC(=O)[C@H]2CCCN2C(=O)[C@H](CC(N)=O)NC(=O)[C@H](Cc2ccc(O)cc2)NC(=O)CNC(=O)[C@H](Cc2c[nH]c3ccccc23)NC1=O [Example A58, Gly-Gly-NMePhe-Tyr-Ahp-Trp-Gly-Tyr-Asn-D-Pro] (cyclo([Ahp(2)]WGYN[dP]GG[NMeF]Y))	46	19	75
CCCCC[C@@H]1NC(=O)[C@H](Cc2ccc(OCCNC(=O)CC[C@H](C(=O)O)N3CCN(CC(=O)O)CCN(CC(=O)O)CCN(CC(=O)O)CC3)cc2)NC(=O)[C@H](Cc2ccccc2)N(C)C(=O)CNC(=O)CNC(=O)[C@H]2CCCN2C(=O)[C@H](CC(=O)O)NC(=O)[C@H](Cc2ccc(O)cc2)NC(=O)CNC(=O)[C@H](Cc2c[nH]c3ccccc23)NC1=O [Example B30, Gly-Gly-NMePhe-F(4OEtNHRDOTAGA)-Ahp-Trp-Gly-Tyr-Asp-D-Pro] (cyclo([AEF](X9)[Ahp(2)]WGYD[dP]GG[NMeF]))	0.118	0.019	0.119
CCCCC[C@@H]1NC(=O)[C@H](Cc2ccc(O)cc2)NC(=O)[C@H](Cc2ccccc2)N(C)C(=O)CNC(=O)[C@H](CCCCN)NC(=O)[C@H]2CCCN2C(=O)[C@H](CC(=O)O)NC(=O)[C@H](Cc2ccc(O)cc2)NC(=O)CNC(=O)[C@H](Cc2c[nH]c3cc(O)ccc23)NC1=O [Example A24, Lys-Gly-NMePhe-Tyr-Ahp-W(6OH)-Gly-Tyr-Asp-D-Pro, TFA salt] (cyclo([Ahp(2)][Trp(6-OH)]GYD[dP]KG[NMeF]Y))	1.3	0.37	0.85

Continued, values first:

IC50 (mouse FAP [1]) [nM]	IC50 (human FAP) [nM]	Kd (mouse FAP [2]) [nM]	Compound
0.193	0.034	< 0.017	Gly-Gly-NMePhe-F(4OEtnHNODAGA-Lu)-Ahp-Trp-Gly-Tyr-Asp-D-Pro (cyclo(GG[NMeF][F(4OEtnHNODAGA-Lu)][Ahp(2)]WGYD[dP]); also: Lu complex) [Example C30]
0.027	0.007	< 0.01	Gly-Gly-NMePhe-F(4OEtNHRDOTAGA-Lu)-Ahp-Trp-Gly-Tyr-Asp-D-Pro (cyclo(GG[NMeF][F(4OEtNHRDOTAGA-Lu)][Ahp(2)]WGYD[dP]); also: Lu complex of DOTAGA) [Example C31]
0.024	0.009	0.028	Gly-Gly-NMePhe-F4(amMeBAlaDOTALu)-Ahp-Trp-Gly-Tyr-Asp-D-Pro (cyclo(GG[NMeF][F4(amMeBAlaDOTALu)][Ahp(2)]WGYD[dP]); also: Lu complex) [Example C11]
